Assay results published in US7879885B2, “Thioalkeneamides as transketolase inhibitors” (Array Biopharma, Inc., priority 2004, dated 2011).

Target: T1, HCT116 TK (cellular transketolase, colon carcinoma HCT116) (Homo sapiens, UniProt P29401)
T1 construct: endogenous in cells; host or cells: HCT116 colon carcinoma cells
T1 sequence (P29401 1-623): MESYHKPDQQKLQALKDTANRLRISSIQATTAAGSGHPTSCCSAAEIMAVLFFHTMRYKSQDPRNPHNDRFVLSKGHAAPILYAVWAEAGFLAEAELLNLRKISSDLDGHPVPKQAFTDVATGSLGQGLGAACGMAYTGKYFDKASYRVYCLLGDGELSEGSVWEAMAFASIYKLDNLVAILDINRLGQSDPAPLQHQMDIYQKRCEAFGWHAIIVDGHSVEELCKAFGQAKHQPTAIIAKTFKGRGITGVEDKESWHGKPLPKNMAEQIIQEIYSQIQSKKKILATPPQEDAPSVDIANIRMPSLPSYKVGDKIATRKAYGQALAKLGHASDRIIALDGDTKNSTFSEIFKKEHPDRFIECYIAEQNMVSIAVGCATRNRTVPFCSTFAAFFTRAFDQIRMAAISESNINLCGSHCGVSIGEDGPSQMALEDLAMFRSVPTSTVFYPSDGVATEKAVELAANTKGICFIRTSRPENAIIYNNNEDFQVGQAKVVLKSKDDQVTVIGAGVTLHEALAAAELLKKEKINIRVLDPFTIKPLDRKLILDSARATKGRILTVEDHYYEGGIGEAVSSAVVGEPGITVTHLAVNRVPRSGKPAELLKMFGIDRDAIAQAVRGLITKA
Assay: Cellular assay: transketolase activity in lysates of treated HCT116 cells
Type: cell-based
Details: colon carcinoma HCT116, thiamine-free DMEM, 48 hours treatment, mean
Description: Log-phase cells were trypsinized, washed and resuspended in thiamine-free DMEM. Optimization of the initial cell counts was carried out for each cell line prior to IC50 measurements. […] Using this initial cell count, IC50 could be monitored for six days.
Media containing 8,000 cells (95 μl) were used to seed individual wells in a 96-well clear-bottom cell cultured-treated sterile plate. Inhibitor compounds were dissolved in 100% DMSO as 10 mM solutions. Serial dilutions were then made in 100% DMSO to make up a 100× stock, then diluted to 20× in double-deionized H2O (ddH2O). Twenty-four hours after seeding, 5 μl of 20× inhibitor compound stock solution was added to the cells so that the final concentration of DMSO was 1%. Media were changed after 24 hours. Forty-eight hours after inhibitor compound treatment, the plates were inverted to remove media and blotted on a paper towel. The plates were then either subjected to enzymatic reactions immediately or were frozen at −20° C. for future assays.
Lysis buffer (20 mM HEPES, pH 7.5, 1 mM EDTA, 0.2 g/l Triton X-100® and 0.2 g/L sodium deoxycholate, supplemented with 1 mM DTT and 1 mM PMSF just before use, 80 μl) were added to each well of the assay plate and allow cell lysis at RT with shaking. Then 15 ul of 5× assay buffer containing final concentrations of 50 mM HEPES, 40 mM KCl, 2.5 mM MgCl2, 5 mM NaArsenate, 1 mM NAD, 2 unit/ml glyceraldehyde-3-phosphate dehydrogenase (GAPDH) was added to the 80 ul of lysate. Reaction kinetics were monitored on a fluorescent plate reader to allow any possible background activity via GAPDH to burn out. Then 5 ul of substrate mix containing final concentrations of 0.5 mM ribose-5-phosphate and 0.5 mM xylulose-5-phosphate was added to initiate the reaction. Monitor reaction kinetics were monitored using a fluorescent plate reader and the slope of the initial linear range was recorded as the velocity of the reaction (FU/min). Enzymatic inhibition was expressed as percent of control wells that were not treated with compounds. The values (y) were plotted as function of the log concentration (x) and fitted to a sigmoidal dose-response curve with variable slopes that bears the equation: y=bottom+(top−bottom)/(1+10^((log EC50-x)*hillslope)).

IC50 [nM]	SMILES
102000	Cc1ccc(CN(C=O)/C=C(/CCO)SS/C(=C\N(C=O)Cc2ccc(C)nc2N)CCO)c(N)n1
26300	CC(=O)OCC/C(SCOC(=O)N(C)C)=C(\C)N(C=O)Cc1ccc(C)nc1N
25	CC(=O)OCC/C(SCOC(=O)C(C)(C)C)=C(\C)N(C=O)Cc1ccc(C)nc1N
32	CC(=O)N(Cc1ccc(C)nc1N)/C(C)=C(/CCO)SS/C(CCO)=C(/C)N(Cc1ccc(C)nc1N)C(C)=O
8	CC(=O)OCC/C(SS/C(CCOC(C)=O)=C(/C)N(C=O)Cc1ccc(C)nc1N)=C(\C)N(C=O)Cc1ccc(C)nc1N
19400	CC(=O)Nc1nc(C)ccc1CN(C=O)/C(C)=C(/CCOC(C)=O)SCOC(=O)N(C)C
5.27	C/C(=C(\CCO)SS/C(CCO)=C(/C)N(C=O)Cc1ccc(Cl)nc1N)N(C=O)Cc1ccc(Cl)nc1N
479	C/C(=C(\CCO)SS/C(CCO)=C(/C)N(C=O)Cc1cccnc1N)N(C=O)Cc1cccnc1N
10	C/C(=C(\CCO)SS/C(CCO)=C(/C)N(C=O)Cc1ccc(C)nc1N)N(C=O)Cc1ccc(C)nc1N
50	CC(=O)OCC/C(SC(C)=O)=C(\C)N(C=O)Cc1ccc(C)nc1N
108	CC(=O)OCC/C(SC(=O)c1ccccc1)=C(\C)N(C=O)Cc1ccc(C)nc1N

The next lines start with the compound.

SMILES	IC50 [nM]
CC(=O)Nc1nc(C)ccc1CN(C=O)/C(C)=C(/CCOC(C)=O)SCOC(=O)C(C)(C)C	2480
CCCSS/C(CCO)=C(/C)N(C=O)Cc1ccc(C)nc1N	25
C/C(=C(\CCO)SSCCN1CCOCC1)N(C=O)Cc1ccc(C)nc1N	70
CCCSS/C(CCO)=C(/C)N(C=O)Cc1ccc(Cl)nc1N	7730
C/C(=C(\CCO)SSCCN1CCCC1)N(C=O)Cc1ccc(C)nc1N	198
CNC(=O)OCS/C(CCO)=C(/C)N(C=O)Cc1ccc(C)nc1N	50
C/C(=C(\CCO)SSCCO)N(C=O)Cc1ccc(C)nc1N	13
C/C(=C(\CCO)SCOC(=O)C(C)(C)C)N(C=O)Cc1ccc(C)nc1N	116
C/C(=C(\CCOC(=O)c1ccccc1)SC(=O)c1ccccc1)N(C=O)Cc1ccc(C)nc1N	28
C/C(=C(\CCO)SCOC(=O)N(C)C)N(C=O)Cc1ccc(C)nc1N	507
C/C(=C(\CCO)SSCCC(=O)O)N(C=O)Cc1ccc(C)nc1N	52
CCOP(=O)(OCC)OCC/C(SC(=O)c1ccccc1)=C(\C)N(C=O)Cc1ccc(C)nc1N	7160
CCCSS/C(CCOP(=O)(OCC)OCC)=C(/C)N(C=O)Cc1ccc(C)nc1N	1040
C/C(=C(\CCO)SCCS(=O)(=O)c1ccccc1)N(C=O)Cc1ccc(C)nc1N	1870
CCC(C)SS/C(CCO)=C(/C)N(C=O)Cc1ccc(C)nc1N (stereo not drawn)	253
C/C(=C(\CCO)SSCC1CCCO1)N(C=O)Cc1ccc(C)nc1N (stereo not drawn)	24
CCCCS/C(CCO)=C(/C)N(C=O)Cc1ccc(C)nc1N	6460
C/C(=C1\CCOC(=O)S1)N(C=O)Cc1ccc(C)nc1N	15
C/C(=C(\CCO)SCCN1CCCCC1)N(C=O)Cc1ccc(C)nc1N	3700
